Test results taken from patent US20170210751A1, “PRMT5 INHIBITORS AND USES THEREOF” (Epizyme, Inc., priority 2014, published 2017).

Target: T1, PRMT5/MEP50 (Homo sapiens, UniProt O14744)
T1 construct: Flag-PRMT5; made in house; host or cells: Spodoptera frugiperda (SF9) insect cells, baculovirus (pDEST8)
Assay: PRMT5 Biochemical Assay (PRMT5/MEP50 enzyme assay on peptide substrate, 3H-SAM Flashplate)
Details: PRMT5/MEP50 4 nM, 3H-SAM 75 nM, peptide 40 nM, 30 min preincubation at 25 degrees Celsius
In short: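 FLAG-PRMT5/His-MEP50 from Sf9 cells (4 nM) preincubated 30 min at 25 °C with compounds, then reacted with 75 nM 3H-SAM and 40 nM biotinylated histone H4 1-15 peptide in Bicine pH 7.6, 1% DMSO. Stopped with 600 uM cold SAM; streptavidin Flashplate capture, scintillation counts; % inhibition fitted to 3- or 4-parameter curve.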

T1 sequence (O14744 with tags, fused parts or gaps): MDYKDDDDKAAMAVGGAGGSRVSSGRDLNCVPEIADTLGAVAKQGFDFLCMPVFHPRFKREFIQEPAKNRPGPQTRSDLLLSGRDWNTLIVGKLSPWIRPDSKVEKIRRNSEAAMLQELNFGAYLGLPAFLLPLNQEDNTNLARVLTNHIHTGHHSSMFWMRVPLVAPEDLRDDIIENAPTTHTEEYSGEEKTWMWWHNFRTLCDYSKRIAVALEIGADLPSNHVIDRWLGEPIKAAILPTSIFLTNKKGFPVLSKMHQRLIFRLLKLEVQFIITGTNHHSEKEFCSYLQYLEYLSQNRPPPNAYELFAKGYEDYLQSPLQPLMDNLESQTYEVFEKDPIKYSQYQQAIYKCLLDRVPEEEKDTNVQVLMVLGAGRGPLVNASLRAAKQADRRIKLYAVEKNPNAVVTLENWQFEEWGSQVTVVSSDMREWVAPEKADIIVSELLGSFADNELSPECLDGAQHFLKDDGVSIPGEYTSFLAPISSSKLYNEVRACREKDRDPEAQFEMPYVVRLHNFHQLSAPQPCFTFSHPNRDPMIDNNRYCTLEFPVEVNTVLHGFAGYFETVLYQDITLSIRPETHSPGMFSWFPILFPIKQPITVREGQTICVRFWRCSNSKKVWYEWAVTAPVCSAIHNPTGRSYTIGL
T1 sequence (Q9BQA1 with tags, fused parts or gaps partner limits assumed): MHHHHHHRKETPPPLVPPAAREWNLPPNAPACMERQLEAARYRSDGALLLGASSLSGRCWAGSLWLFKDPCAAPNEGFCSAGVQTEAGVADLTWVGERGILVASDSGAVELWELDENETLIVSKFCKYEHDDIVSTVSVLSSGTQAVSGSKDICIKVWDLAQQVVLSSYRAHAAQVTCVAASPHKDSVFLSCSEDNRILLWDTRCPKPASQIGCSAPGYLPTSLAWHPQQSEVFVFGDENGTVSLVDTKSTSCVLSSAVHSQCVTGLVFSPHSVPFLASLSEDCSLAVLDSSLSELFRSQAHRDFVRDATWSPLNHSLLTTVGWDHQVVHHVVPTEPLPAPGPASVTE

Row | Compound | IC50 [µM]
1 | CC(=O)N1CCC(Nc2cc(C(=O)NC[C@H](O)CN3CCc4ncn(C)c4C3)ccn2)CC1 [Compound 3-24, (S)-2-((1-acetylpiperidin-4-yl)amino)-N-(2-hydroxy-3-(3-methyl-6,7-dihydro-3H-imidazo[4,5-c]pyridin-5(4H)-yl)propyl)isonicotinamide] | > 10
2 | O=C(COc1cccc2cccnc12)NCC(O)CN1CCc2ccncc2C1 (stereo not shown) [Compound 2-8, N-[2-hydroxy-3-(1,2,3,4-tetrahydro-2,7-naphthyridin-2-yl)propyl]-2-(quinolin-8-yloxy)acetamide] | 1 to 10
3 | CC(=O)N1CC(Nc2cc(C(=O)NC[C@H](O)CN3CCc4sc(N)nc4C3)ncn2)C1 [Compound 1-28] | 1 to 10
4 | CC(=O)N1CC(Nc2cc(C(=O)NC[C@H](O)CN3CCc4ccncc4C3)ncn2)C1 [Compound 2-22] | 1 to 10

Next, values leading:

Row | IC50 [µM] | Compound
5 | > 10 | CC(=O)N1CC(Nc2cc(C(=O)NC[C@H](O)CN3CCc4c(ncn4C)C3)ncn2)C1 [Compound 3-45]
6 | < 0.1 | CC(=O)N1CC(Nc2cc(C(=O)NC[C@H](O)CN3CCc4scc(C)c4C3)ncn2)C1 [Compound 1-12, (S)-6-((1-acetylazetidin-3-yl)amino)-N-(2-hydroxy-3-(3-methyl-6,7-dihydrothieno[3,2-c]pyridin-5(4H)-yl)propyl)pyrimidine-4-carboxamide]
7 | 1 to 10 | CC(=O)N1CCC(Nc2cc(C(=O)NC[C@H](O)CN3CCc4sc(N)nc4C3)ncn2)CC1 [Compound 1-37]
